From ChEMBL document CHEMBL5614409, “Discovery of potent HIV-1 NNRTIs by CuAAC click-chemistry-based miniaturized synthesis, rapid screening and structure optimization” (Eur J Med Chem, 2024)

system: Human immunodeficiency virus 1; experiment: Antiviral activity against HIV1 IIIB infected in MT4 cells assessed as reduction in virus induced cytopathic effect incubated for 5 days by MTT method; assay type: functional, organism-based; conditions: Human immunodeficiency virus 1, IIIB, MT4, 120 h

Row | SMILES | EC50
1 | Cc1cc(/C=C/C#N)cc(C)c1Oc1nc(NC2CCN(Cc3cn(CC(N)=O)nn3)CC2)nc2c1COC2 | 13 nM
2 | Cc1cc(/C=C/C#N)cc(C)c1Oc1nc(NC2CCN(Cc3cn(CC(=O)NC4CC4)nn3)CC2)nc2c1COC2 | 5 nM
3 | Cc1cc(/C=C/C#N)cc(C)c1Oc1nc(NC2CCN(Cc3cn(CC(N)=O)nn3)CC2)nc2ccsc12 | 5 nM
4 | CNC(=O)Cn1cc(CN2CCC(Nc3nc4c(c(Oc5c(C)cc(/C=C/C#N)cc5C)n3)COC4)CC2)nn1 | 4 nM
5 | CNC(=O)Cn1cc(CN2CCC(Nc3nc(Oc4c(C)cc(/C=C/C#N)cc4C)c4ccccc4n3)CC2)nn1 | 5 nM
6 | Cc1cc(/C=C/C#N)cc(C)c1Oc1nc(NC2CCN(Cc3cn(CC(N)=O)nn3)CC2)nc2ccccc12 | 6 nM
7 | Cc1ccnc2c1NC(=O)c1cccnc1N2C1CC1 [NEVIRAPINE] | 151 nM

system: not listed separately; experiment: Cytotoxicity against human MT4 cells assessed as reduction in cell viability incubated for 5 days by MTT method; assay type: toxicity, cell-based; conditions: time 5 day

Row | SMILES | CC50 at 120 h
8 | Cc1cc(/C=C/C#N)cc(C)c1Oc1nc(NC2CCN(Cc3cn(CC(N)=O)nn3)CC2)nc2c1COC2 | 125000 nM
9 | Cc1cc(/C=C/C#N)cc(C)c1Oc1nc(NC2CCN(Cc3cn(CC(=O)NC4CC4)nn3)CC2)nc2c1COC2 | 118000 nM
10 | Cc1cc(/C=C/C#N)cc(C)c1Oc1nc(NC2CCN(Cc3cn(CC(N)=O)nn3)CC2)nc2ccsc12 | 16200 nM
11 | CNC(=O)Cn1cc(CN2CCC(Nc3nc4c(c(Oc5c(C)cc(/C=C/C#N)cc5C)n3)COC4)CC2)nn1 | 119000 nM
12 | CNC(=O)Cn1cc(CN2CCC(Nc3nc(Oc4c(C)cc(/C=C/C#N)cc4C)c4ccccc4n3)CC2)nn1 | 18100 nM
13 | Cc1cc(/C=C/C#N)cc(C)c1Oc1nc(NC2CCN(Cc3cn(CC(N)=O)nn3)CC2)nc2ccccc12 | 18100 nM
14 | Cc1ccnc2c1NC(=O)c1cccnc1N2C1CC1 [NEVIRAPINE] | > 15000 nM

system: not listed separately; experiment: Selectivity index, ratio of CC50 for human MT4 cells to EC50 for antiviral activity against HIV1 IIIB infected in MT4 cells; assay type: toxicity, cell-based; conditions: read-out: Ratio CC50/EC50

Row | SMILES | selectivity ratio
15 | Cc1cc(/C=C/C#N)cc(C)c1Oc1nc(NC2CCN(Cc3cn(CC(N)=O)nn3)CC2)nc2c1COC2 | 9570
16 | Cc1cc(/C=C/C#N)cc(C)c1Oc1nc(NC2CCN(Cc3cn(CC(=O)NC4CC4)nn3)CC2)nc2c1COC2 | 22800
17 | Cc1cc(/C=C/C#N)cc(C)c1Oc1nc(NC2CCN(Cc3cn(CC(N)=O)nn3)CC2)nc2ccsc12 | 3000
18 | CNC(=O)Cn1cc(CN2CCC(Nc3nc4c(c(Oc5c(C)cc(/C=C/C#N)cc5C)n3)COC4)CC2)nn1 | 31300
19 | CNC(=O)Cn1cc(CN2CCC(Nc3nc(Oc4c(C)cc(/C=C/C#N)cc4C)c4ccccc4n3)CC2)nn1 | 4020
20 | Cc1cc(/C=C/C#N)cc(C)c1Oc1nc(NC2CCN(Cc3cn(CC(N)=O)nn3)CC2)nc2ccccc12 | 3300

system: Human immunodeficiency virus 1; experiment: Antiviral activity against HIV1 IIIB harboring L100I mutant infected in MT4 cells assessed as reduction in virus induced cytopathic effect incubated for 5 days by MTT method; assay type: functional, organism-based; conditions: Human immunodeficiency virus 1, IIIB, MT4, 120 h

Row | SMILES | EC50
21 | Cc1cc(/C=C/C#N)cc(C)c1Oc1nc(NC2CCN(Cc3cn(CC(N)=O)nn3)CC2)nc2c1COC2 | 37 nM
22 | Cc1cc(/C=C/C#N)cc(C)c1Oc1nc(NC2CCN(Cc3cn(CC(=O)NC4CC4)nn3)CC2)nc2c1COC2 | 16 nM
23 | Cc1cc(/C=C/C#N)cc(C)c1Oc1nc(NC2CCN(Cc3cn(CC(N)=O)nn3)CC2)nc2ccsc12 | 18 nM
24 | CNC(=O)Cn1cc(CN2CCC(Nc3nc4c(c(Oc5c(C)cc(/C=C/C#N)cc5C)n3)COC4)CC2)nn1 | 17 nM
25 | CNC(=O)Cn1cc(CN2CCC(Nc3nc(Oc4c(C)cc(/C=C/C#N)cc4C)c4ccccc4n3)CC2)nn1 | 8 nM
26 | Cc1cc(/C=C/C#N)cc(C)c1Oc1nc(NC2CCN(Cc3cn(CC(N)=O)nn3)CC2)nc2ccccc12 | 17 nM

system: Human immunodeficiency virus 1; experiment: Antiviral activity against HIV1 IIIB harboring K103 N mutant infected in MT4 cells assessed as reduction in virus induced cytopathic effect incubated for 5 days by MTT method; assay type: functional, organism-based; conditions: Human immunodeficiency virus 1, IIIB, MT4, 120 h

Row | SMILES | EC50
27 | Cc1cc(/C=C/C#N)cc(C)c1Oc1nc(NC2CCN(Cc3cn(CC(N)=O)nn3)CC2)nc2c1COC2 | 32 nM
28 | Cc1cc(/C=C/C#N)cc(C)c1Oc1nc(NC2CCN(Cc3cn(CC(=O)NC4CC4)nn3)CC2)nc2c1COC2 | 8 nM
29 | Cc1cc(/C=C/C#N)cc(C)c1Oc1nc(NC2CCN(Cc3cn(CC(N)=O)nn3)CC2)nc2ccsc12 | 8 nM
30 | CNC(=O)Cn1cc(CN2CCC(Nc3nc4c(c(Oc5c(C)cc(/C=C/C#N)cc5C)n3)COC4)CC2)nn1 | 8 nM
31 | Cc1cc(/C=C/C#N)cc(C)c1Oc1nc(NC2CCN(Cc3cn(CC(N)=O)nn3)CC2)nc2ccccc12 | 8 nM

system: Human immunodeficiency virus 1; experiment: Antiviral activity against HIV1 IIIB harboring Y181C mutant infected in MT4 cells assessed as reduction in virus induced cytopathic effect incubated for 5 days by MTT method; assay type: functional, organism-based; conditions: Human immunodeficiency virus 1, IIIB, MT4, 120 h

Row | SMILES | EC50
32 | Cc1cc(/C=C/C#N)cc(C)c1Oc1nc(NC2CCN(Cc3cn(CC(N)=O)nn3)CC2)nc2c1COC2 | 57 nM
33 | Cc1cc(/C=C/C#N)cc(C)c1Oc1nc(NC2CCN(Cc3cn(CC(=O)NC4CC4)nn3)CC2)nc2c1COC2 | 33 nM
34 | Cc1cc(/C=C/C#N)cc(C)c1Oc1nc(NC2CCN(Cc3cn(CC(N)=O)nn3)CC2)nc2ccsc12 | 32 nM
35 | CNC(=O)Cn1cc(CN2CCC(Nc3nc4c(c(Oc5c(C)cc(/C=C/C#N)cc5C)n3)COC4)CC2)nn1 | 28 nM
36 | CNC(=O)Cn1cc(CN2CCC(Nc3nc(Oc4c(C)cc(/C=C/C#N)cc4C)c4ccccc4n3)CC2)nn1 | 18 nM
37 | Cc1cc(/C=C/C#N)cc(C)c1Oc1nc(NC2CCN(Cc3cn(CC(N)=O)nn3)CC2)nc2ccccc12 | 33 nM

system: Human immunodeficiency virus 1; experiment: Antiviral activity against HIV1 IIIB harboring Y188L mutant infected in MT4 cells assessed as reduction in virus induced cytopathic effect incubated for 5 days by MTT method; assay type: functional, organism-based; conditions: Human immunodeficiency virus 1, IIIB, MT4, 120 h

Row | SMILES | EC50
38 | Cc1cc(/C=C/C#N)cc(C)c1Oc1nc(NC2CCN(Cc3cn(CC(N)=O)nn3)CC2)nc2c1COC2 | 419 nM
39 | Cc1cc(/C=C/C#N)cc(C)c1Oc1nc(NC2CCN(Cc3cn(CC(=O)NC4CC4)nn3)CC2)nc2c1COC2 | 114 nM
40 | Cc1cc(/C=C/C#N)cc(C)c1Oc1nc(NC2CCN(Cc3cn(CC(N)=O)nn3)CC2)nc2ccsc12 | 97 nM
41 | CNC(=O)Cn1cc(CN2CCC(Nc3nc4c(c(Oc5c(C)cc(/C=C/C#N)cc5C)n3)COC4)CC2)nn1 | 179 nM
42 | CNC(=O)Cn1cc(CN2CCC(Nc3nc(Oc4c(C)cc(/C=C/C#N)cc4C)c4ccccc4n3)CC2)nn1 | 49 nM
43 | Cc1cc(/C=C/C#N)cc(C)c1Oc1nc(NC2CCN(Cc3cn(CC(N)=O)nn3)CC2)nc2ccccc12 | 81 nM

system: Human immunodeficiency virus 1; experiment: Antiviral activity against HIV1 IIIB harboring E138K mutant infected in MT4 cells assessed as reduction in virus induced cytopathic effect incubated for 5 days by MTT method; assay type: functional, organism-based; conditions: Human immunodeficiency virus 1, IIIB, MT4, 120 h

Row | SMILES | EC50
44 | Cc1cc(/C=C/C#N)cc(C)c1Oc1nc(NC2CCN(Cc3cn(CC(N)=O)nn3)CC2)nc2c1COC2 | 31 nM
45 | Cc1cc(/C=C/C#N)cc(C)c1Oc1nc(NC2CCN(Cc3cn(CC(=O)NC4CC4)nn3)CC2)nc2c1COC2 | 15 nM
46 | Cc1cc(/C=C/C#N)cc(C)c1Oc1nc(NC2CCN(Cc3cn(CC(N)=O)nn3)CC2)nc2ccsc12 | 21 nM
47 | CNC(=O)Cn1cc(CN2CCC(Nc3nc4c(c(Oc5c(C)cc(/C=C/C#N)cc5C)n3)COC4)CC2)nn1 | 17 nM
48 | CNC(=O)Cn1cc(CN2CCC(Nc3nc(Oc4c(C)cc(/C=C/C#N)cc4C)c4ccccc4n3)CC2)nn1 | 13 nM
49 | Cc1cc(/C=C/C#N)cc(C)c1Oc1nc(NC2CCN(Cc3cn(CC(N)=O)nn3)CC2)nc2ccccc12 | 23 nM

system: Human immunodeficiency virus 1; experiment: Antiviral activity against HIV1 IIIB harboring F227L/V106A double mutant infected in MT4 cells assessed as reduction in virus induced cytopathic effect incubated for 5 days by MTT method; assay type: functional, organism-based; conditions: Human immunodeficiency virus 1, IIIB, MT4, 120 h

Row | SMILES | EC50
50 | Cc1cc(/C=C/C#N)cc(C)c1Oc1nc(NC2CCN(Cc3cn(CC(N)=O)nn3)CC2)nc2c1COC2 | 268 nM
51 | Cc1cc(/C=C/C#N)cc(C)c1Oc1nc(NC2CCN(Cc3cn(CC(=O)NC4CC4)nn3)CC2)nc2c1COC2 | 275 nM
52 | Cc1cc(/C=C/C#N)cc(C)c1Oc1nc(NC2CCN(Cc3cn(CC(N)=O)nn3)CC2)nc2ccsc12 | 94 nM
53 | CNC(=O)Cn1cc(CN2CCC(Nc3nc4c(c(Oc5c(C)cc(/C=C/C#N)cc5C)n3)COC4)CC2)nn1 | 945 nM
54 | CNC(=O)Cn1cc(CN2CCC(Nc3nc(Oc4c(C)cc(/C=C/C#N)cc4C)c4ccccc4n3)CC2)nn1 | 257 nM
55 | Cc1cc(/C=C/C#N)cc(C)c1Oc1nc(NC2CCN(Cc3cn(CC(N)=O)nn3)CC2)nc2ccccc12 | 499 nM

system: Human immunodeficiency virus 1; experiment: Antiviral activity against HIV1 IIIB harboring RES056 mutant infected in MT4 cells assessed as reduction in virus induced cytopathic effect incubated for 5 days by MTT method; assay type: functional, organism-based; conditions: Human immunodeficiency virus 1, IIIB, MT4, 120 h

Row | SMILES | EC50
56 | Cc1cc(/C=C/C#N)cc(C)c1Oc1nc(NC2CCN(Cc3cn(CC(N)=O)nn3)CC2)nc2c1COC2 | 2460 nM
57 | Cc1cc(/C=C/C#N)cc(C)c1Oc1nc(NC2CCN(Cc3cn(CC(=O)NC4CC4)nn3)CC2)nc2c1COC2 | 304 nM
58 | Cc1cc(/C=C/C#N)cc(C)c1Oc1nc(NC2CCN(Cc3cn(CC(N)=O)nn3)CC2)nc2ccsc12 | 240 nM
59 | CNC(=O)Cn1cc(CN2CCC(Nc3nc4c(c(Oc5c(C)cc(/C=C/C#N)cc5C)n3)COC4)CC2)nn1 | 805 nM
60 | CNC(=O)Cn1cc(CN2CCC(Nc3nc(Oc4c(C)cc(/C=C/C#N)cc4C)c4ccccc4n3)CC2)nn1 | 139 nM
61 | Cc1cc(/C=C/C#N)cc(C)c1Oc1nc(NC2CCN(Cc3cn(CC(N)=O)nn3)CC2)nc2ccccc12 | 187 nM
62 | Cc1ccnc2c1NC(=O)c1cccnc1N2C1CC1 [NEVIRAPINE] | > 15000 nM
